Experiments:
[1] = tested on: wildtype Wnt signaling cascade; assay: HEK293 TOP assay (Super TopFlash luciferase reporter, Wnt-3a stimulated); format: cell-based; settings: Homo sapiens, HEK293, 16 h, HEK293 TOP reporter cells, Wnt3a at EC50, 16 hours
Text: 7.1 Measurement of the Inhibitory Activity of Selected Compounds on the Wildtype Wnt Signaling Cascade: HEK293 TOP/FOP Assay
In order to discover and characterize small molecules which inhibit the wildtype Wnt pathway, a cellular reporter assay was employed. The corresponding assay cell was generated by transfection of the mammalian cell line HEK293 (ATCC, #CRL-1573) with the Super TopFlash vector (Morin, Science 275, 1997, 1787-1790; Molenaar et al., Cell 86 (3), 1996, 391-399). The HEK293 cell line is cultivated at 37° C. and 5% CO2 in DMEM (Life Technologies, #41965-039), supplemented with 2 mM glutamine, 20 mM HEPES, 1.4 mM pyruvate, 0.15% Na-bicarbonate and 10% foetal bovine serum (GIBCO, #10270). Stable transfectants were generated by selection with 300 μg/ml Hygromycin.
(§1) In preparation of the assay, the two cell lines were plated 24 h before beginning the test at 10000 cells per well in a 384 micro titre plate (MTP) in 30 μl growth medium. […] The recombinant human Wnt-3a was thereby applied between 2500 and 5 ng/ml in two-fold dilution steps.
(§2) Selective inhibitory activity for small molecules on the wildtype Wnt pathway was determined after parallel incubation of both (TOP and FOP) HEK293 reporter cell lines with a compound dilution series from 50 μM to 15 nM in steps of 3.16-fold dilutions in CAFTY buffer (130 mM sodium chloride, 5 mM potassium chloride, 20 mM HEPES, 1 mM magnesium chloride, 5 mM sodium bicarbonate, pH 7.4) containing 2 mM Ca^2+ and 0.01% BSA.
(§3) The compounds were thereby serially prediluted in 100% DMSO and thereafter 50 fold into the CAFTY compound dilution buffer (described above).

TNKS2 = molecular target: T1, TNKS2 (Homo sapiens, UniProt Q9H2K2); assay: TNKS2 Assay B (auto-parsylation, [3H]-NAD+ SPA); format: biochemical; settings: 6 nM TNKS2, auto-parsylation, over night at room temperature
T1 construct: purchased BPS Bioscience, San Diego, USA 80572 (TNKS2 Histone Ribosylation Assay Kit)
T1 sequence (Q9H2K2 1-1166): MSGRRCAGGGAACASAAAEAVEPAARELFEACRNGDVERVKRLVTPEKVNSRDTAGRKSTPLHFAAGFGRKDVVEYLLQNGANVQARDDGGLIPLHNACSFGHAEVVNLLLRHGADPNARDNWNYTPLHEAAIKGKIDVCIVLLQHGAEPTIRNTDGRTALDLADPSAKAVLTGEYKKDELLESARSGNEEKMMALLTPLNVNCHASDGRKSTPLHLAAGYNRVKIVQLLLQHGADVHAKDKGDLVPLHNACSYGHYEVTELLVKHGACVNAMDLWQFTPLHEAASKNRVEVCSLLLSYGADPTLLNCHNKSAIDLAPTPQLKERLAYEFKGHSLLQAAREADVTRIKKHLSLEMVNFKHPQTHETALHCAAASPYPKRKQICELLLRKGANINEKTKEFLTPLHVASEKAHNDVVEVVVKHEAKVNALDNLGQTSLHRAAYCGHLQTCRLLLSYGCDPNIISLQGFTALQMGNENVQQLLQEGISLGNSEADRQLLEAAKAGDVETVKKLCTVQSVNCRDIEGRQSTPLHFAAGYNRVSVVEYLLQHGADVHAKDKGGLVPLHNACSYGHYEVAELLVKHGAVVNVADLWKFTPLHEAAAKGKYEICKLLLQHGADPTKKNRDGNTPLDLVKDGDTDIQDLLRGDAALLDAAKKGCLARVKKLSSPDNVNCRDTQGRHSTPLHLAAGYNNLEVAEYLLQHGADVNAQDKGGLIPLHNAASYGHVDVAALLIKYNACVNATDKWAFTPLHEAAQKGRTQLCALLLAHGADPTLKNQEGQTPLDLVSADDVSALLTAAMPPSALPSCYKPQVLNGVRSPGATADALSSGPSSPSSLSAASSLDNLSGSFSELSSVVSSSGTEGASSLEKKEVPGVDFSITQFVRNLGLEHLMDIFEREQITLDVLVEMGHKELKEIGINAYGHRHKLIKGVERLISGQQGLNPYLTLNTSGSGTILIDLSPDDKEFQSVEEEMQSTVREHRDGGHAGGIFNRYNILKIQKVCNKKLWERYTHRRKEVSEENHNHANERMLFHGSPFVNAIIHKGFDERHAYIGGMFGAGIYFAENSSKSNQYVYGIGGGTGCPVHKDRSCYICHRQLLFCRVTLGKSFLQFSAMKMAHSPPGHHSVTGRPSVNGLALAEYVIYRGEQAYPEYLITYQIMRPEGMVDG
Procedure: The potency of selected compounds according to the invention was assessed applying a modified in vitro inhibition assay. Here, the TNKS2 catalyzed NAD^+-dependent ribosylation of the enzyme itself (auto-parsylation) was detected using [^3H]-NAD^+ as substrate and applying the scintillation proximity assay (SPA) method to detect tritium-labeled, parsylated TNKS2. The intensity of the readout signal is proportional to the incorporated [^3H]-NAD^+. Inhibition of TNKS2 leads to a decreased incorporation of [^3H]-NAD^+ and consequently to a lower readout signal intensity. The concentration of a test compound which inhibits the enzyme activity by 50% (corresponds to half of the normed readout signal intensity) is reported as IC50.
Protocol Auto-Parsylation Assay
The assay was conducted in a 96 well MTP format with the identical TNKS2 enzyme sample and NAD^+ sample as in the histone ribosylation assay with the following modifications: TNKS2 enzyme sample was diluted with a modified assay buffer (50 mM MES pH 7.0, 1 mM DTT, 0.01% Triton X-100) to a final concentration of 6 nM TNKS2 and 10×NAD^+ solution was diluted with the modified assay buffer (s. above) to a final 0.445×NAD^+ solution doped with 100 Bq/μl [^3H]-NAD^+[Catalog #NET443H050UC, Perkin Elmer, Waltham, Mass., USA]. Substrate solution (10 μl) was incubated with different test compound concentrations (2.5 μl in 10% DMSO in modified assay buffer) or control (2.5 μl 10% DMSO in modified assay buffer only) and enzyme (10 μl) over night at room temperature. Incorporated tritium was measured after addition of 50 ul SPA beads (1 mg/ml) [Catalog #RPNQ0095 20 mg/ml, Perkin Elmer, Waltham, Mass., USA; diluted 1:10 with Dulbecco's phosphate buffered saline, PBS Catalog #D8537, Sigma-Aldrich, Steinheim, Germany] and detection of the photon emission with a beta count plate reader [Wallac MicroBeta®, Perkin Elmer, Waltham, Mass., USA].

[2] = tested on: HEK293 cells cotransfected with the FOP control vector; assay: HEK293 FOP assay (control reporter with non-functional TCF elements); format: cell-based; settings: Homo sapiens, 16 hours
Procedure: In a parallel approach, HEK293 cells were cotransfected with the FOP control vector and pcDNA3. The FOP vector is identical to the TOP construct, but it contains instead of functional TCF elements a randomized, non-functional sequence. For this transfection a stable transfected cell line was generated as well, based on selection with Geneticin (1 mg/ml).
as §1, §2, §3

Row | Compound | IC50 [1] [nM] | IC50 (TNKS2) [nM] | IC50 [2] [nM]
1 | Cc1cc(C)n2nc(C)c(C(=O)N[C@H]3CC[C@@]4(CCN(c5ccc(F)cc5Cl)C4=O)CC3)c2n1 [Example 227, N-[(trans)-2-(2-chloro-4-fluorophenyl)-1-oxo-2-azaspiro[4.5]dec-8-yl]-2,5,7-trimethylpyrazolo[1,5-a]pyrimidine-3-carboxamide] | 88 | 150 | ≥ 50000
2 | O=C(N[C@H]1CC[C@@]2(CCN(c3ccc(F)cc3Cl)C2=O)CC1)c1n[nH]c2cccnc12 [Example 228, N-[(trans)-2-(2-chloro-4-fluorophenyl)-1-oxo-2-azaspiro[4.5]dec-8-yl]-1H-pyrazolo[4,3-b]pyridine-3-carboxamide] | 60 | 420 | ≥ 500
3 | O=C(N[C@H]1CC[C@@]2(CCN(c3ccc(F)cc3Cl)C2=O)CC1)c1cnn2ccccc12 [Example 230, N-[(trans)-2-(2-chloro-4-fluorophenyl)-1-oxo-2-azaspiro[4.5]dec-8-yl]pyrazolo[1,5-a]pyridine-3-carboxamide] | 30 | 280 | ≥ 500
4 | O=C(N[C@H]1CC[C@@]2(CCN(c3ccc(F)cc3Cl)C2=O)CC1)c1cnn2ccc(N3CCOCC3)nc12 [Example 231, N-[(trans)-2-(2-chloro-4-fluorophenyl)-1-oxo-2-azaspiro[4.5]dec-8-yl]-5-(morpholin-4-yl)pyrazolo[1,5-a]pyrimidine-3-carboxamide] | 8 | 3.8 | ≥ 500
5 | O=C(N[C@H]1CC[C@@]2(CCN(c3ccc(F)cc3Cl)C2=O)CC1)c1cnn2ccc(O)nc12 [Example 234, N-[(trans)-2-(2-chloro-4-fluorophenyl)-1-oxo-2-azaspiro[4.5]dec-8-yl]-5-hydroxypyrazolo[1,5-a]pyrimidine-3-carboxamide] | 590 | 210 | ≥ 50000
6 | O=C(N[C@H]1CC[C@@]2(CCN(c3ccc(F)cc3Cl)C2=O)CC1)c1cnn2c(O)ccnc12 [Example 235, N-[(trans)-2-(2-chloro-4-fluorophenyl)-1-oxo-2-azaspiro[4.5]dec-8-yl]-7-hydroxypyrazolo[1,5-a]pyrimidine-3-carboxamide] | 230 | 29 | ≥ 500
7 | O=C(N[C@H]1CC[C@@]2(CCN(c3ccc(F)cc3Cl)C2=O)CC1)c1c[nH]c2cccnc12 [Example 236, N-[(trans)-2-(2-chloro-4-fluorophenyl)-1-oxo-2-azaspiro[4.5]dec-8-yl]-1H-pyrrolo[3,2-b]pyridine-3-carboxamide] | 350 | 19 | ≥ 50000
8 | COCCc1cnc2c(C(=O)N[C@H]3CC[C@@]4(CCN(c5ccc(F)cc5Cl)C4=O)CC3)cnn2c1 [Example 237, N-[(trans)-2-(2-chloro-4-fluorophenyl)-1-oxo-2-azaspiro[4.5]dec-8-yl]-6-(2-methoxyethyl)pyrazolo[1,5-a]pyrimidine-3-carboxamide] | 0.14 | 8.9 | ≥ 50000
9 | O=C(N[C@H]1CC[C@@]2(CCN(c3ccccc3)C2=O)CC1)c1cnn2cccnc12 [Example 238, N-[(trans)-1-oxo-2-phenyl-2-azaspiro[4.5]dec-8-yl]pyrazolo[1,5-a]pyrimidine-3-carboxamide] | 43 | 400 | ≥ 500
10 | Cc1cc(C)n2ncc(C(=O)N[C@H]3CC[C@@]4(CCN(c5ccccc5)C4=O)CC3)c2n1 [Example 239, 5,7-dimethyl-N-[(trans)-1-oxo-2-phenyl-2-azaspiro[4.5]dec-8-yl]pyrazolo[1,5-a]pyrimidine-3-carboxamide] | 73 | 570 | ≥ 500
11 | O=C(N[C@H]1CC[C@@]2(CCN(c3ccccc3)C2=O)CC1)c1cnc2cccnn12 [Example 240, N-[(trans)-1-oxo-2-phenyl-2-azaspiro[4.5]dec-8-yl]imidazo[1,2-b]pyridazine-3-carboxamide] | 29 | 510 | ≥ 500
12 | COCc1cc(C)nc2c(C(=O)N[C@H]3CC[C@@]4(CCN(c5c(F)cc(F)cc5Cl)C4=O)CC3)cnn12 [Example 241, N-[(trans)-2-(2-chloro-4,6-difluorophenyl)-1-oxo-2-azaspiro[4.5]dec-8-yl]-7-(methoxymethyl)-5-methylpyrazolo[1,5-a]pyrimidine-3-carboxamide] | 0.99 | 19 | 8100
13 | COCc1cc(C)n2ncc(C(=O)N[C@H]3CC[C@@]4(CCN(c5c(F)cc(F)cc5Cl)C4=O)CC3)c2n1 [Example 242, N-[(trans)-2-(2-chloro-4,6-difluorophenyl)-1-oxo-2-azaspiro[4.5]dec-8-yl]-5-(methoxymethyl)-7-methylpyrazolo[1,5-a]pyrimidine-3-carboxamide] | 7.1 | 21 | ≥ 50000
14 | O=C(N[C@H]1CC[C@@]2(CCN(c3c(F)cc(F)cc3Cl)C2=O)CC1)c1cnc2cccnn12 [Example 243, N-[(trans)-2-(2-chloro-4,6-difluorophenyl)-1-oxo-2-azaspiro[4.5]dec-8-yl]imidazo[1,2-b]pyridazine-3-carboxamide] | 1.5 | 11 | ≥ 50000

— US20180148418A1, “AMIDO-SUBSTITUTED CYCLOHEXANE DERIVATIVES” (Bayer Pharma Aktiengesellschaft, priority 2015, published 2018)
